Reference: article PMC6738096 (British Journal of Cancer, 2019)

Experiment: Phase 1 dose-escalation trial: safety and tolerability (TEAEs, SAEs, DLT, MTD, RP2D)
Experimental: Endpoints included the incidence of DLTs (defined in the ‘Safety' section) in the first 28-day treatment cycle (cycle 1), the frequency and severity of adverse events (AEs) and serious AEs (SAEs) and changes in laboratory values, vital signs, physical examination findings and Eastern Cooperative Oncology Group (ECOG) performance status (PS).
The starting dose was 30 mg, which was determined by review of nonclinical toxicokinetic assessments. A treatment cycle comprised 28 days in the absence of disease progression or unacceptable toxicity. Patients received starting doses ranging from 30 mg once every 24 hours (Q24h) to 480 mg Q24h, and escalation proceeded based on a 3 + 3 design.
The subsequent cohort started at a reduced dosing regimen. Additional dosing schedules were once every 12 hours (Q12h) at 30 and 60 mg and once every 8 hours (Q8h) at 20 and 40 mg.
Toxicities were graded and recorded according to NCI CTCAE version 4.03. Patients were assessed for DLTs during the first 28-day cycle. A DLT was defined as any grade ≥ 3 nonhaematologic toxicity, according to NCI CTCAE version 4.03.

Compound: CC(C)NC(=O)[C@H]1CC[C@@H](n2c(NC(=O)c3ccc(F)cc3)nc3ccc(CN4CCC(C(C)(C)O)CC4)cc32)CC1 [TSR-011]
- Drug-related TEAE: Abnormal dreams (20 mg Q8h (n = 16)): 1 (6.3) n (%)
- Drug-related TEAE: Anaemia (20 mg Q8h (n = 16)): 0 n (%)
- Drug-related TEAE: Asthenia (20 mg Q8h (n = 16)): 1 (6.3) n (%)
- Drug-related TEAE: Constipation (20 mg Q8h (n = 16)): 2 (12.5) n (%)
- Drug-related TEAE: Decreased appetite (20 mg Q8h (n = 16)): 1 (6.3) n (%)
- Drug-related TEAE: Diarrhoea (20 mg Q8h (n = 16)): 1 (6.3) n (%)
- Drug-related TEAE: Dysaesthesia (20 mg Q8h (n = 16)): 1 (6.3) n (%)
- Drug-related TEAE: Dysgeusia (20 mg Q8h (n = 16)): 0 n (%)
- Drug-related TEAE: Electrocardiogram QTc prolonged (20 mg Q8h (n = 16)): 1 (6.3) n (%)
- Drug-related TEAE: Fatigue (20 mg Q8h (n = 16)): 1 (6.3) n (%)
- Drug-related TEAE: Headache (20 mg Q8h (n = 16)): 0 n (%)
- Drug-related TEAE: Hot flush (20 mg Q8h (n = 16)): 1 (6.3) n (%)
- Drug-related TEAE: Increased transaminases (20 mg Q8h (n = 16)): 0 n (%)
- Drug-related TEAE: Insomnia (20 mg Q8h (n = 16)): 0 n (%)
- Drug-related TEAE: Myalgia (20 mg Q8h (n = 16)): 0 n (%)
- Drug-related TEAE: Nausea (20 mg Q8h (n = 16)): 0 n (%)
- Drug-related TEAE: Peripheral oedema (20 mg Q8h (n = 16)): 0 n (%)
- Drug-related TEAE: Rash (20 mg Q8h (n = 16)): 0 n (%)
- Drug-related TEAE: Vomiting (20 mg Q8h (n = 16)): 2 (12.5) n (%)
- Grade 3 TEAE: Anaemia (20 mg Q8h (n = 16)): 2 (12.5) n (%)
- Grade 3 TEAE: Ascites (20 mg Q8h (n = 16)): 1 (6.3) n (%)
- Grade 3 TEAE: Asthenia (20 mg Q8h (n = 16)): 1 (6.3) n (%)
- Grade 3 TEAE: Dyspnoea (20 mg Q8h (n = 16)): 0 n (%)
- Grade 3 TEAE: Electrocardiogram QTc prolonged (20 mg Q8h (n = 16)): 0 n (%)
- Grade 3 TEAE: Fatigue (20 mg Q8h (n = 16)): 1 (6.3) n (%)
- Grade 3 TEAE: Metastases to the central nervous system (20 mg Q8h (n = 16)): 1 (6.3) n (%)
- Patients with any TEAE (20 mg Q8h (n = 16)): 16 (100.0) Number (%)
- Patients with any TEAE leading to treatment discontinuation (20 mg Q8h (n = 16)): 2 (12.5) Number (%)
- Patients with any serious TEAE (20 mg Q8h (n = 16)): 7 (43.8) Number (%)
- Patients with any study drug-related TEAE (20 mg Q8h (n = 16)): 9 (56.3) Number (%)
- Patients with ≥ 1 treatment-emergent SAE (20 mg Q8h (n = 16)): 7 (43.8) n (%)
- SAE class: Blood and lymphatic system disorders (20 mg Q8h (n = 16)): 0 n (%)
- SAE class: Cardiac disorders (20 mg Q8h (n = 16)): 0 n (%)
- SAE class: Gastrointestinal disorders (20 mg Q8h (n = 16)): 1 (6.3) n (%)
- SAE class: General disorders and administration-site conditions (20 mg Q8h (n = 16)): 2 (12.5) n (%)
- SAE class: Hepatobiliary disorders (20 mg Q8h (n = 16)): 1 (6.3) n (%)
- SAE class: Infections and infestations (20 mg Q8h (n = 16)): 1 (6.3) n (%)
- SAE class: Metabolism and nutrition disorders (20 mg Q8h (n = 16)): 1 (6.3) n (%)
- SAE class: Musculoskeletal and connective tissue disorders (20 mg Q8h (n = 16)): 1 (6.3) n (%)
- SAE class: Neoplasms benign, malignant and unspecified (including cysts and polyps) (20 mg Q8h (n = 16)): 2 (12.5) n (%)
- SAE class: Nervous system disorders (20 mg Q8h (n = 16)): 1 (6.3) n (%)
- SAE class: Respiratory, thoracic and mediastinal disorders (20 mg Q8h (n = 16)): 0 n (%)
- SAE class: Vascular disorders (20 mg Q8h (n = 16)): 1 (6.3) n (%)
- SAE: Abdominal pain (20 mg Q8h (n = 16)): 0 n (%)
- SAE: Anaemia (20 mg Q8h (n = 16)): 0 n (%)
- SAE: Asthenia (20 mg Q8h (n = 16)): 1 (6.3) n (%)
- SAE: Basal cell carcinoma (20 mg Q8h (n = 16)): 1 (6.3) n (%)
- SAE: Bone pain (20 mg Q8h (n = 16)): 1 (6.3) n (%)
- SAE: Deep-vein thrombosis (20 mg Q8h (n = 16)): 1 (6.3) n (%)
- SAE: Dehydration (20 mg Q8h (n = 16)): 1 (6.3) n (%)
- SAE: Disease progression (20 mg Q8h (n = 16)): 2 (12.5) n (%)
- SAE: Dyspnoea (20 mg Q8h (n = 16)): 0 n (%)
- SAE: Gastric haemorrhage (20 mg Q8h (n = 16)): 1 (6.3) n (%)
- SAE: Gastric ulcer helicobacter (20 mg Q8h (n = 16)): 0 n (%)
- SAE: Infection (20 mg Q8h (n = 16)): 0 n (%)
- SAE: Lower respiratory tract infection (20 mg Q8h (n = 16)): 0 n (%)
- SAE: Mastoiditis (20 mg Q8h (n = 16)): 1 (6.3) n (%)
- SAE: Mental impairment (20 mg Q8h (n = 16)): 1 (6.3) n (%)
- SAE: Metastases to the central nervous system (20 mg Q8h (n = 16)): 1 (6.3) n (%)
- SAE: Pericardial effusion (20 mg Q8h (n = 16)): 0 n (%)
- SAE: Pleural effusion (20 mg Q8h (n = 16)): 0 n (%)
- SAE: Pneumonia (20 mg Q8h (n = 16)): 0 n (%)
- SAE: Portal vein thrombosis (20 mg Q8h (n = 16)): 1 (6.3) n (%)
- SAE: Seizure (20 mg Q8h (n = 16)): 1 (6.3) n (%)
- SAE: Subarachnoid haemorrhage (20 mg Q8h (n = 16)): 0 n (%)
- Total number of TEAEs (20 mg Q8h (n = 16)): 159
- Total number of treatment-emergent SAEs (20 mg Q8h (n = 16)): 14
- Patients with any AE leading to death (20 mg Q8h (n = 16), none deemed related to treatment): 2 (12.5) Number (%)
- Drug-related TEAE: Abnormal dreams (40 mg Q8h (n = 31)): 0 n (%)
- Drug-related TEAE: Anaemia (40 mg Q8h (n = 31)): 1 (3.2) n (%)
- Drug-related TEAE: Asthenia (40 mg Q8h (n = 31)): 0 n (%)
- Drug-related TEAE: Constipation (40 mg Q8h (n = 31)): 2 (6.5) n (%)
- Drug-related TEAE: Decreased appetite (40 mg Q8h (n = 31)): 0 n (%)
- Drug-related TEAE: Diarrhoea (40 mg Q8h (n = 31)): 0 n (%)
- Drug-related TEAE: Dysaesthesia (40 mg Q8h (n = 31)): 0 n (%)
- Drug-related TEAE: Dysgeusia (40 mg Q8h (n = 31)): 0 n (%)
- Drug-related TEAE: Electrocardiogram QTc prolonged (40 mg Q8h (n = 31)): 3 (9.7) n (%)
- Drug-related TEAE: Fatigue (40 mg Q8h (n = 31)): 0 n (%)
- Drug-related TEAE: Headache (40 mg Q8h (n = 31)): 0 n (%)
- Drug-related TEAE: Hot flush (40 mg Q8h (n = 31)): 0 n (%)
- Drug-related TEAE: Increased transaminases (40 mg Q8h (n = 31)): 0 n (%)
- Drug-related TEAE: Insomnia (40 mg Q8h (n = 31)): 2 (6.5) n (%)
- Drug-related TEAE: Myalgia (40 mg Q8h (n = 31)): 0 n (%)
- Drug-related TEAE: Nausea (40 mg Q8h (n = 31)): 1 (3.2) n (%)
- Drug-related TEAE: Peripheral oedema (40 mg Q8h (n = 31)): 1 (3.2) n (%)
- Drug-related TEAE: Rash (40 mg Q8h (n = 31)): 1 (3.2) n (%)
- Drug-related TEAE: Vomiting (40 mg Q8h (n = 31)): 1 (3.2) n (%)
- Grade 3 TEAE: Anaemia (40 mg Q8h (n = 31)): 2 (6.5) n (%)
- Grade 3 TEAE: Ascites (40 mg Q8h (n = 31)): 0 n (%)
- Grade 3 TEAE: Asthenia (40 mg Q8h (n = 31)): 1 (3.2) n (%)
- Grade 3 TEAE: Dyspnoea (40 mg Q8h (n = 31)): 0 n (%)
- Grade 3 TEAE: Electrocardiogram QTc prolonged (40 mg Q8h (n = 31)): 1 (3.2) n (%)
- Grade 3 TEAE: Fatigue (40 mg Q8h (n = 31)): 0 n (%)
- Grade 3 TEAE: Metastases to the central nervous system (40 mg Q8h (n = 31)): 1 (3.2) n (%)
- Patients with any TEAE (40 mg Q8h (n = 31)): 29 (93.5) Number (%)
- Patients with any TEAE leading to treatment discontinuation (40 mg Q8h (n = 31)): 5 (16.1) Number (%)
- Patients with any serious TEAE (40 mg Q8h (n = 31)): 12 (38.7) Number (%)
- Patients with any study drug-related TEAE (40 mg Q8h (n = 31)): 13 (41.9) Number (%)
- Patients with ≥ 1 treatment-emergent SAE (40 mg Q8h (n = 31)): 12 (38.7) n (%)
- SAE class: Blood and lymphatic system disorders (40 mg Q8h (n = 31)): 2 (6.5) n (%)
- SAE class: Cardiac disorders (40 mg Q8h (n = 31)): 1 (3.2) n (%)
- SAE class: Gastrointestinal disorders (40 mg Q8h (n = 31)): 1 (3.2) n (%)
- SAE class: General disorders and administration-site conditions (40 mg Q8h (n = 31)): 2 (6.5) n (%)
- SAE class: Hepatobiliary disorders (40 mg Q8h (n = 31)): 0 n (%)
- SAE class: Infections and infestations (40 mg Q8h (n = 31)): 4 (12.9) n (%)
- SAE class: Metabolism and nutrition disorders (40 mg Q8h (n = 31)): 0 n (%)
- SAE class: Musculoskeletal and connective tissue disorders (40 mg Q8h (n = 31)): 0 n (%)
- SAE class: Neoplasms benign, malignant and unspecified (including cysts and polyps) (40 mg Q8h (n = 31)): 1 (3.2) n (%)
- SAE class: Nervous system disorders (40 mg Q8h (n = 31)): 2 (6.5) n (%)
- SAE class: Respiratory, thoracic and mediastinal disorders (40 mg Q8h (n = 31)): 1 (3.2) n (%)
- SAE class: Vascular disorders (40 mg Q8h (n = 31)): 0 n (%)
- SAE: Abdominal pain (40 mg Q8h (n = 31)): 1 (3.2) n (%)
- SAE: Anaemia (40 mg Q8h (n = 31)): 2 (6.5) n (%)
- SAE: Asthenia (40 mg Q8h (n = 31)): 0 n (%)
- SAE: Basal cell carcinoma (40 mg Q8h (n = 31)): 0 n (%)
